The compounds below were run against CX3CR1 (Homo sapiens (Human), UniProt P49238) (assay: hCX3CR1 [3H]-AZD8797 competitive binding assay (filter)). Settings: CHO-hCX3CR1 membranes, 2 nM [3H]-AZD8797.
CX3CR1, sequence (P49238 whole entry): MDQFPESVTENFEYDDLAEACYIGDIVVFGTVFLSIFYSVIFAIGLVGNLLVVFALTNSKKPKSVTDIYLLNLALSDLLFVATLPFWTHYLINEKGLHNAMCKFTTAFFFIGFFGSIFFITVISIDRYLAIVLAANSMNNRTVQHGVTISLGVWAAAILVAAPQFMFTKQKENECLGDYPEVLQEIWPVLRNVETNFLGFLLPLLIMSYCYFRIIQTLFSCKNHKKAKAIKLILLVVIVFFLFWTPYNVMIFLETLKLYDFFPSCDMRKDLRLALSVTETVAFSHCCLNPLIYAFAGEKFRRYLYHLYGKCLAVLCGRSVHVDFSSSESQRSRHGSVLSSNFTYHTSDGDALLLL
Description: hCX3CR1 [^3H]-AZD8797 Competitive Binding Assay (Filter)
CHO-hCX3CR1 membranes (9 μg per well) together with 2 nM [^3H]-AZD8797 and different concentrations of competitor compound were incubated in 25 mM HEPES (pH 7.4), 10 mM MgCl2, 1 mM CaCl2) and 0.5% BSA in a Corning polystyrene flat-bottom 96-well plate. The plate was incubated for 2 h at room temperature before free radioligand was separated from bound by vacuum filtration on to a Multiscreen HTS+HiFlow FB (Millipore) filter plate, using a Biomek FX (Beckman Coulter). The filter plate was washed in ice-cold 25 mM HEPES (pH 7.4), 5 mM MgCl2, 1 mM CaCl2) and 500 mM NaCl and dried at 50° C. for 1 h. Scintillation cocktail, Optiphase Supermix (PerkinElmer) was added to each well and the radioactivity was measured using a MicroBeta Trilux reader (PerkinElmer). The DMSO concentration was held constant at 1%.
Work on `CC(C)C[C@H](CO)Nc1nc(CC(C)c2ccc3c(c2)OCO3)nc(NS(C)(=O)=O)n1` (stereo partly drawn) [Example 108, N-(4-(2-(Benzo[d][1,3]dioxol-5-yl)propyl)-6-(((R)-1-hydroxy-4-methylpentan-2-yl)amino)-1,3,5-triazin-2-yl)methanesulfonamide] yielded an IC50 of 58 nM.
In the case of `CCOc1ccc(C(C)Cc2nc(N[C@@H](CO)CC(C)C)nc(NS(C)(=O)=O)n2)cc1` (stereo partly drawn) [Example 123, N-(4-(2-(4-Ethoxyphenyl)propyl)-6-(((R)-1-hydroxy-4-methylpentan-2-yl)amino)-1,3,5-triazin-2-yl)methanesulfonamide], the IC50 is reported as 339 nM.
For `CC(C)C[C@H](CO)Nc1nc(CC(C)c2ccc(C3CCOCC3)cc2)nc(NS(C)(=O)=O)n1` (stereo partly drawn) [Example 102, N-(4-(((R)-1-Hydroxy-4-methylpentan-2-yl)amino)-6-(2-(4-(tetrahydro-2H-pyran-4-yl)phenyl)propyl)-1,3,5-triazin-2-yl)methanesulfonamide], the IC50 was 88 nM.
`CCOc1ccc(C(C)Cc2nc(N[C@@H](CO)CC(C)C)nc(NS(C)(=O)=O)n2)cn1` (stereo partly drawn) [Example 167, N-(4-(2-(6-Ethoxypyridin-3-yl)propyl)-6-(((R)-1-hydroxy-4-methylpentan-2-yl)amino)-1,3,5-triazin-2-yl)methanesulfonamide] showed an IC50 of 310 nM.
`CC[C@H](Cc1nc(N[C@@H](CO)CC(C)C)nc(NS(C)(=O)=O)n1)c1cccc(F)c1F` (single isomer, unassigned) [Example 47, N-(4-((R*)-2-(2,3-Difluorophenyl)butyl)-6-(((R)-1-hydroxy-4-methylpentan-2-yl)amino)-1,3,5-triazin-2-yl)methanesulfonamide] showed an IC50 of 63 nM.
Compound `CC(C)C[C@H](CO)Nc1nc(C[C@@H](C)c2ccnc(F)c2)nc(NS(C)(=O)=O)n1` (single isomer, unassigned) [Example 91, N-(4-((R*)-2-(2-Fluoropyridin-4-yl)propyl)-6-(((R)-1-hydroxy-4-methylpentan-2-yl)amino)-1,3,5-triazin-2-yl)methanesulfonamide] has an IC50 of 34 nM.
With `CCOc1ccc(C(C)Cc2nc(N[C@@H](CO)CC(C)C)nc(NS(C)(=O)=O)n2)cc1Cl` (stereo partly drawn) [Example 98, N-(4-(2-(3-Chloro-4-ethoxyphenyl)propyl)-6-(((R)-1-hydroxy-4-methylpentan-2-yl)amino)-1,3,5-triazin-2-yl)methanesulfonamide] the IC50 was 427 nM.
With `CC(C)C[C@H](CO)Nc1nc(CC(C)c2ccc(N3CCOCC3=O)cc2)nc(NS(C)(=O)=O)n1` (stereo partly drawn) [Example 118, N-(4-(((R)-1-Hydroxy-4-methylpentan-2-yl)amino)-6-(2-(4-(3-oxomorpholino)phenyl)propyl)-1,3,5-triazin-2-yl)methanesulfonamide] the IC50 was 150 nM.
With `COc1cccc(C(C)Cc2nc(N[C@@H](CO)CC(C)C)nc(NS(C)(=O)=O)n2)c1` (stereo partly drawn) [Example 92, N-(4-(((R)-1-Hydroxy-4-methylpentan-2-yl)amino)-6-(2-(3-methoxyphenyl)propyl)-1,3,5-triazin-2-yl)methanesulfonamide] the IC50 was 112 nM.
Compound `CC(C)C[C@H](CO)Nc1nc(C[C@@H](C)c2cc(F)c(Cl)cc2F)nc(NS(C)(=O)=O)n1` (single isomer, unassigned) [Example 38, N-(4-((R*)-2-(4-Chloro-2,5-difluorophenyl)propyl)-6-(((R)-1-hydroxy-4-methylpentan-2-yl)amino)-1,3,5-triazin-2-yl)methanesulfonamide] has an IC50 of 685 nM.
`CC(C)C[C@H](CO)Nc1nc(CC(C)c2ccc(C#N)cc2)nc(NS(C)(=O)=O)n1` (stereo partly drawn) [Example 68, N-(4-(2-(4-Cyanophenyl)propyl)-6-(((R)-1-hydroxy-4-methylpentan-2-yl)amino)-1,3,5-triazin-2-yl)methanesulfonamide] showed an IC50 of 336 nM.
Work on `CC(C)C[C@H](CO)Nc1nc(C[C@H](C)c2cc(F)c(Cl)c(F)c2)nc(NS(C)(=O)=O)n1` (single isomer, unassigned) [Example 32, N-(4-((S*)-2-(4-Chloro-3,5-difluorophenyl)propyl)-6-(((R)-1-hydroxy-4-methylpentan-2-yl)amino)-1,3,5-triazin-2-yl)methanesulfonamide] yielded an IC50 of 7560 nM.
`CC(C)C[C@H](CO)Nc1nc(C[C@H](C)c2c(F)cc(F)cc2F)nc(NS(C)(=O)=O)n1` (single isomer, unassigned) [Example 39, N-(4-(((R)-1-Hydroxy-4-methylpentan-2-yl)amino)-6-((S*)-2-(2,4,6-trifluorophenyl)propyl)-1,3,5-triazin-2-yl)methanesulfonamide] showed an IC50 of over 10000 nM.
`CC[C@@H](Cc1nc(N[C@@H](CO)CC(C)C)nc(NS(C)(=O)=O)n1)c1cccc(F)c1F` (single isomer, unassigned) [Example 48, N-(4-((S*)-2-(2,3-Difluorophenyl)butyl)-6-(((R)-1-hydroxy-4-methylpentan-2-yl)amino)-1,3,5-triazin-2-yl)methanesulfonamide] was tested, and the IC50 was 309 nM.
`CC(C)C[C@H](CO)Nc1nc(CC(C)c2ccc(C(F)(F)F)cc2)nc(NS(C)(=O)=O)n1` (stereo partly drawn) [Example 74, N-(4-(((R)-1-Hydroxy-4-methylpentan-2-yl)amino)-6-(2-(4-(trifluoromethyl)phenyl)propyl)-1,3,5-triazin-2-yl)methanesulfonamide] gave an IC50 of 925 nM.
Compound `CC(C)C[C@H](CO)Nc1nc(CC(C)c2ccc3ncn(C)c(=O)c3c2)nc(NS(C)(=O)=O)n1` (stereo partly drawn) [Example 124, N-(4-(((R)-1-Hydroxy-4-methylpentan-2-yl)amino)-6-(2-(3-methyl-4-oxo-3,4-dihydroquinazolin-6-yl)propyl)-1,3,5-triazin-2-yl)methanesulfonamide] has an IC50 of 126 nM.
Work on `COc1cc(F)c([C@@H](C)Cc2nc(N[C@@H](CO)CC(C)C)nc(NS(C)(=O)=O)n2)cn1` (single isomer, unassigned) [Example 45, N-(4-((S*)-2-(4-Fluoro-6-methoxypyridin-3-yl)propyl)-6-(((R)-1-hydroxy-4-methylpentan-2-yl)amino)-1,3,5-triazin-2-yl)methanesulfonamide] yielded an IC50 of 765 nM.
For `CC(C)C[C@H](CO)Nc1nc(C[C@H](C)c2cc(Cl)ccc2F)nc(NS(C)(=O)=O)n1` (single isomer, unassigned) [Example 29, N-(4-((S*)-2-(5-Chloro-2-fluorophenyl)propyl)-6-(((R)-1-hydroxy-4-methylpentan-2-yl)amino)-1,3,5-triazin-2-yl)methanesulfonamide], the IC50 was 794 nM.
Compound `CC(C)C[C@H](CO)Nc1nc(C[C@H](C)c2c(F)cc(Cl)cc2F)nc(NS(C)(=O)=O)n1` (single isomer, unassigned) [Example 43, N-(4-((S*)-2-(4-Chloro-2,6-difluorophenyl)propyl)-6-(((R)-1-hydroxy-4-methylpentan-2-yl)amino)-1,3,5-triazin-2-yl)methanesulfonamide] has an IC50 of 9110 nM.
With `CC(C)C[C@H](CO)Nc1nc(CC(C)c2ccc(C#N)cc2)nc(NS(C)(=O)=O)n1` (single isomer, unassigned) [Example 164, N-(4-((S*)-2-(4-Cyanophenyl)propyl)-6-(((R)-1-hydroxy-4-methylpentan-2-yl)amino)-1,3,5-triazin-2-yl)methanesulfonamide] the IC50 was 1500 nM.
`CC(C)C[C@H](CO)Nc1nc(CC(C)c2cc(F)c(CO)c(F)c2)nc(NS(C)(=O)=O)n1` (stereo partly drawn) [Example 110, N-(4-(2-(3,5-Difluoro-4-(hydroxymethyl)phenyl)propyl)-6-(((R)-1-hydroxy-4-methylpentan-2-yl)amino)-1,3,5-triazin-2-yl)methanesulfonamide] showed an IC50 of 34 nM.
With `Cc1cc(C(C)Cc2nc(N[C@@H](CO)CC(C)C)nc(NS(C)(=O)=O)n2)ccc1F` (stereo partly drawn) [Example 111, N-(4-(2-(4-Fluoro-3-methylphenyl)propyl)-6-(((R)-1-hydroxy-4-methylpentan-2-yl)amino)-1,3,5-triazin-2-yl)methanesulfonamide] the IC50 was 391 nM.
For `Cc1cc(C(C)Cc2nc(N[C@@H](CO)CC(C)C)nc(NS(C)(=O)=O)n2)ccn1` (stereo partly drawn) [Example 94, N-(4-(((R)-1-Hydroxy-4-methylpentan-2-yl)amino)-6-(2-(2-methylpyridin-4-yl)propyl)-1,3,5-triazin-2-yl)methanesulfonamide], the IC50 was 102 nM.
`CC(C)C[C@H](CO)Nc1nc(CC(C)c2cccc(CN3OCCC3=O)c2)nc(NS(C)(=O)=O)n1` (stereo partly drawn) [Example 101, N-(4-(((R)-1-Hydroxy-4-methylpentan-2-yl)amino)-6-(2-(3-((3-oxoisoxazolidin-2-yl)methyl)phenyl)propyl)-1,3,5-triazin-2-yl)methanesulfonamide] gave an IC50 of 542 nM.
`CC(C)C[C@H](CO)Nc1nc(CC(C)c2ccc(N)c(F)c2)nc(NS(C)(=O)=O)n1` (stereo partly drawn) [Example 136, N-(4-(2-(4-Amino-3-fluorophenyl)propyl)-6-(((R)-1-hydroxy-4-methylpentan-2-yl)amino)-1,3,5-triazin-2-yl)methanesulfonamide] showed an IC50 of 16 nM.
With `Cc1ncc(C(C)Cc2nc(N[C@@H](CO)CC(C)C)nc(NS(C)(=O)=O)n2)cc1N` (stereo partly drawn) [Example 131, N-(4-(2-(5-Amino-6-methylpyridin-3-yl)propyl)-6-(((R)-1-hydroxy-4-methylpentan-2-yl)amino)-1,3,5-triazin-2-yl)methanesulfonamide] the IC50 was 639 nM.
`CC(C)C[C@H](CO)Nc1nc(C[C@@H](C)c2ccc(Cl)c(F)c2F)nc(NS(C)(=O)=O)n1` (single isomer, unassigned) [Example 34, N-(4-((R*)-2-(4-Chloro-2,3-difluorophenyl)propyl)-6-(((R)-1-hydroxy-4-methylpentan-2-yl)amino)-1,3,5-triazin-2-yl)methanesulfonamide] gave an IC50 of 52 nM.
